From publication PMC8162404, “Proteomimetic surface fragments distinguish targets by function” (Chemical Science, 2020)

How the values were obtained:
Gal-1 [1] = target: T1, Gal-1 (Homo sapiens, UniProt P09382); assay: Pull-down assay with immobilized protein and LSM libraries; assay type: binding; settings: H14 library; 1:1 binding assumed; read-out: Surface mapping KD (apparent)
T1 construct: made in house; host or cells: E. coli BL21(DE3)
Outline: (§1)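 Buffers were HEPES pH 7.4 with 150 mM NaCl, plus 1 mM TCEP and 1 mM CaCl2 (50 mM HEPES) for S100A4 and S100B, 1 mM TCEP for Gal-1, and no additive for RecQ-WH. Immobilized protein at 64 µM was equilibrated 30 min with the LSM sublibrary, and unbound probes were measured by LC-MS.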

S100A4 = target: T2, S100A4 (Homo sapiens, UniProt P26447); assay: as above; assay type: binding; settings: H14 library; 1:1 binding assumed; read-out: Surface mapping KD (apparent)
T2 construct: made in house; host or cells: Escherichia coli BL21(DE3)
T2 sequence (P26447 whole entry): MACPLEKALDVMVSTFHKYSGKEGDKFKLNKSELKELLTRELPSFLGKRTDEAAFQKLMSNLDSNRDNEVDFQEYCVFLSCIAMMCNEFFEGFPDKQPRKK
Outline: as §1

Gal-1 [2] = target: T1, Gal-1; assay: Competition pull-down with lactose; assay type: binding; settings: H14 library; lactose 10 mM; read-out: Surface mapping KD (apparent), competition
Method: Interactions between the H14 helical LSMs and the targets were abundant, but safe recognition of the native PPI interfaces on the targets is a criterion of druggability. To gain insight into the ability of the LSMs to detect orthosteric spots, we carried out pull-down assays in the presence of the native ligands (Table 2) of the targets (Fig. 5). For highlighting the effect of the competitor on the binding fingerprints, KD ratios and the LSM replacement percentages were calculated and are represented as heat maps (see ESI, Fig. S7 ^†). […] This could be explained by the glycan selective native recognition domain of the protein. We note that the replacement pattern for a single probe can, in theory, be complex. […] Moreover, a single probe can bind to both orthosteric and non-orthosteric spots, which limits overall displacement levels. To avoid overlooking interesting orthosteric weak binders, direct replacement levels were assessed (see ESI, Fig. S7 ^†).
Pull-down assay and data analysis
Pull-down assay. LSM sublibraries were screened separately as previously described.(2) Experiments were performed in the following buffers: (i) 20 mM pH 7.4 HEPES, 150 mM NaCl, 5 mM CaCl2 for CaM; (ii) 50 mM pH 7.4 HEPES, 150 mM NaCl, 1 mM TCEP, 1 mM CaCl2 for S100 proteins; (iii) 20 mM pH 7.4 HEPES, 150 mM NaCl, 1 mM TCEP for Gal-1 and (iv) 20 mM pH 7.4 HEPES, 150 mM NaCl for RecQ-WH. Assays were performed in paper filter spin cups (Thermo Scientific) with sample volumes of 100 µl. Hexahistidine-tagged proteins were immobilized on previously washed Co-NTA resin (TALON, Takara Bio USA, Inc., Mountain View, CA) in 64 µM final concentration. LSM sublibrary was added, in which each of the 64 library members were used at a concentration of 1 µM. Samples were incubated at room temperature for 30 min with shaking at 100 rpm. Then, samples were centrifuged at 1000 rpm for 2 min and washed with 100 µl pull-down buffer to remove unbound compounds.
The control experiments were performed using the same compounds and the resin but without the immobilized protein. In case of competitive assays, competitor peptides were added to LSM sublibrary samples in 200 µM final concentration. In the case of Gal-1, lactose (competitor) was used in a concentration of 10 mM. Experiments were performed at least twice. Mean […]
LC-MS methods and parameters. HPLC/ESI-MS analysis was used to characterize the samples from the pull-down assay. LC-MS analysis was performed with a Thermo Scientific Dionex UltiMate 3000 HPLC system interfaced to an LTQ ion trap mass spectrometer (Thermo Electron Corp., San Jose, CA, USA). Samples were injected onto an Aeris Widepore XB-C18 (250 x 4.6 mm) analytical HPLC column using gradient elution 5-80 % solution B during 25 minutes. For pull-down samples, eluent composition was 0.1% acetic acid in distilled water (Solution A) and 0.1% acetic acid in acetonitrile (solution B). Mass spectra were acquired in full scan mode from 200 to 2000 m/z range. For overlapping peaks, selective reaction monitoring (SRM) was […]
MS data analysis. Thermo Xcalibur 2.2 software was used for peak identification and integration. The majority of the foldameric fragments could be resolved independently via HPLC-MS/MS measurements based on molecular weight, MS fragmentation pattern and retention time. Peaks of some foldamers with β3-hIle or β3-hLeu in position R2 could not be resolved, these were integrated and averaged. In the processing method, each sample component was associated to a chromatographic peak based on previously identified mass (m/z) and retention time (ref (2) and Table S7-10). Using ICIS peak detection algorithm, the general detection and integration criteria were: smoothing points: 5, baseline window: 80, area noise factor: 5, peak noise factor: 10. Using these processing setups, all raw data files were reprocessed together and analyzed. Errors in peak identification during the automatic processing were corrected manually.
Calculation of the discussed parameters […]

CaM [3] = target: T3, CaM (Bos taurus, UniProt P62157); assay: Competition pull-down with native ligand TRPV1-Ct15; assay type: binding, bovine; settings: H14 library; competitor peptide 200 µM; read-out: Surface mapping KD (apparent), competition
T3 construct: made in house; host or cells: E. coli BL21 (DE3)

CaM [4] = target: T3, CaM; assay: Pull-down assay with immobilized protein and LSM libraries; assay type: binding, bovine; settings: H14 library; 1:2 stoichiometry assumed; read-out: Surface mapping KD (apparent)
Outline: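 CaM buffer was 20 mM HEPES pH 7.4, 150 mM NaCl, 5 mM CaCl2. LSM sublibrary members ([…]) incubated 30 min, RT, with equimolar His-tagged protein on Co-NTA resin. HPLC-MS measured unbound probes; bound fraction relative to resin-only background gave dissociation constants.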

S100B = target: T4, S100B (Homo sapiens, UniProt P04271); assay: as above; assay type: binding; settings: H14 library; 1:1 binding assumed; read-out: Surface mapping KD (apparent)
T4 construct: made in house; host or cells: Escherichia coli BL21(DE3)
T4 sequence (P04271 1-92): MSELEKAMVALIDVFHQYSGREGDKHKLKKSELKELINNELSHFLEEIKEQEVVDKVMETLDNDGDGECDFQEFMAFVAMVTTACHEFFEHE
Outline: as §1

T1 sequence (P09382 whole entry): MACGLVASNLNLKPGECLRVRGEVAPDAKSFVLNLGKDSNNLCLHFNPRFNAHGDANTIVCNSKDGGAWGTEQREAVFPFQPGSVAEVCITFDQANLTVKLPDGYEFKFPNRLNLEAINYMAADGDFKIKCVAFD

Structure (SMILES) | Kd (S100A4) [µM] | Kd (Gal-1 [2]) [µM] | Kd (S100B) [µM] | Kd (Gal-1 [1]) [µM] | Kd (CaM [3]) [µM] | Kd (CaM [4]) [µM]
NC(=O)[C@H]1CCCC[C@@H]1NC(=O)C[C@H](CC(=O)O)NC(=O)[C@H]1CCCC[C@@H]1NC(=O)[C@H]1CCCC[C@@H]1NC(=O)C[C@H](CC(=O)O)NC(=O)[C@H]1CCCC[C@@H]1N [H14 DD] | – | – | – | – | 447 | –
NC(=O)CC[C@@H](CC(=O)N[C@H]1CCCC[C@@H]1C(N)=O)NC(=O)[C@H]1CCCC[C@@H]1NC(=O)[C@H]1CCCC[C@@H]1NC(=O)C[C@H](CC(=O)O)NC(=O)[C@H]1CCCC[C@@H]1N [H14 DQ] | – | – | – | – | 212 | –
CSCC[C@@H](CC(=O)N[C@H]1CCCC[C@@H]1C(=O)N[C@H]1CCCC[C@@H]1C(=O)N[C@@H](CC(=O)O)CC(=O)N[C@H]1CCCC[C@@H]1C(N)=O)NC(=O)[C@H]1CCCC[C@@H]1N [H14 MD] | 423 | – | – | – | 278 | –
C[C@@H](CC(=O)N[C@H]1CCCC[C@@H]1C(N)=O)NC(=O)[C@H]1CCCC[C@@H]1NC(=O)[C@H]1CCCC[C@@H]1NC(=O)C[C@H](CC(N)=O)NC(=O)[C@H]1CCCC[C@@H]1N [H14 NA] | – | – | – | – | 399 | 185
NC(=O)C[C@@H](CC(=O)N[C@H]1CCCC[C@@H]1C(=O)N[C@H]1CCCC[C@@H]1C(=O)N[C@@H](CCC(=O)O)CC(=O)N[C@H]1CCCC[C@@H]1C(N)=O)NC(=O)[C@H]1CCCC[C@@H]1N [H14 NE] | – | – | – | 378 | 414 | 254
NC(=O)CC[C@@H](CC(=O)N[C@H]1CCCC[C@@H]1C(=O)N[C@H]1CCCC[C@@H]1C(=O)N[C@@H](CC(=O)O)CC(=O)N[C@H]1CCCC[C@@H]1C(N)=O)NC(=O)[C@H]1CCCC[C@@H]1N [H14 QD] | – | – | – | 379 | 349 | 231
NC(=O)CC[C@@H](CC(=O)N[C@H]1CCCC[C@@H]1C(=O)N[C@H]1CCCC[C@@H]1C(=O)N[C@@H](CC(N)=O)CC(=O)N[C@H]1CCCC[C@@H]1C(N)=O)NC(=O)[C@H]1CCCC[C@@H]1N [H14 QN] | – | – | – | 257 | 304 | 177
C[C@@H](O)[C@@H](CC(=O)N[C@H]1CCCC[C@@H]1C(N)=O)NC(=O)[C@H]1CCCC[C@@H]1NC(=O)[C@H]1CCCC[C@@H]1NC(=O)C[C@H](CCC(N)=O)NC(=O)[C@H]1CCCC[C@@H]1N [H14 QT] | – | – | – | 325 | 266 | 211
NC(=O)[C@H]1CCCC[C@@H]1NC(=O)C[C@H](CO)NC(=O)[C@H]1CCCC[C@@H]1NC(=O)[C@H]1CCCC[C@@H]1NC(=O)C[C@H](CO)NC(=O)[C@H]1CCCC[C@@H]1N [H14 SS] | – | – | – | 435 | 236 | 172
C[C@@H](O)[C@@H](CC(=O)N[C@H]1CCCC[C@@H]1C(=O)N[C@H]1CCCC[C@@H]1C(=O)N[C@@H](CCCCN)CC(=O)N[C@H]1CCCC[C@@H]1C(N)=O)NC(=O)[C@H]1CCCC[C@@H]1N [H14 TK] | – | – | 172 | – | 485 | 88
C[C@@H](O)[C@@H](CC(=O)N[C@H]1CCCC[C@@H]1C(=O)N[C@H]1CCCC[C@@H]1C(=O)N[C@@H](CCC(N)=O)CC(=O)N[C@H]1CCCC[C@@H]1C(N)=O)NC(=O)[C@H]1CCCC[C@@H]1N [H14 TQ] | – | – | – | 369 | 269 | 156

Further lines, with some results ahead:

Kd (S100A4) [µM] | Kd (Gal-1 [2]) [µM] | Kd (S100B) [µM] | Structure (SMILES) | Kd (Gal-1 [1]) [µM] | Kd (CaM [3]) [µM] | Kd (CaM [4]) [µM]
356 | 416 | – | C[C@@H](CC(=O)N[C@H]1CCCC[C@@H]1C(=O)N[C@H]1CCCC[C@@H]1C(=O)N[C@H](CC(=O)N[C@H]1CCCC[C@@H]1C(N)=O)[C@@H](C)O)NC(=O)[C@H]1CCCC[C@@H]1N [H14 AT] | 443 | – | –
– | 453 | – | NC(=O)C[C@@H](CC(=O)N[C@H]1CCCC[C@@H]1C(N)=O)NC(=O)[C@H]1CCCC[C@@H]1NC(=O)[C@H]1CCCC[C@@H]1NC(=O)C[C@H](CCC(=O)O)NC(=O)[C@H]1CCCC[C@@H]1N [H14 EN] | – | – | –
– | 443 | – | NC(=O)CC[C@@H](CC(=O)N[C@H]1CCCC[C@@H]1C(N)=O)NC(=O)[C@H]1CCCC[C@@H]1NC(=O)[C@H]1CCCC[C@@H]1NC(=O)C[C@H](CCC(=O)O)NC(=O)[C@H]1CCCC[C@@H]1N [H14 EQ] | – | – | –
– | 282 | – | NC(=O)[C@H]1CCCC[C@@H]1NC(=O)C[C@H](CO)NC(=O)[C@H]1CCCC[C@@H]1NC(=O)[C@H]1CCCC[C@@H]1NC(=O)C[C@H](CCC(=O)O)NC(=O)[C@H]1CCCC[C@@H]1N [H14 ES] | – | – | –
– | 465 | 319 | C[C@@H](CC(=O)N[C@H]1CCCC[C@@H]1C(N)=O)NC(=O)[C@H]1CCCC[C@@H]1NC(=O)[C@H]1CCCC[C@@H]1NC(=O)C[C@H](CCCCN)NC(=O)[C@H]1CCCC[C@@H]1N [H14 KA] | – | – | 318
– | 298 | 53 | NCCCC[C@@H](CC(=O)N[C@H]1CCCC[C@@H]1C(N)=O)NC(=O)[C@H]1CCCC[C@@H]1NC(=O)[C@H]1CCCC[C@@H]1NC(=O)C[C@H](CCCCN)NC(=O)[C@H]1CCCC[C@@H]1N [H14 KK] | – | – | 49
– | 278 | 195 | NCCCC[C@@H](CC(=O)N[C@H]1CCCC[C@@H]1C(=O)N[C@H]1CCCC[C@@H]1C(=O)N[C@@H](CC(N)=O)CC(=O)N[C@H]1CCCC[C@@H]1C(N)=O)NC(=O)[C@H]1CCCC[C@@H]1N [H14 KN] | – | – | 455
– | 370 | 194 | C[C@@H](O)[C@@H](CC(=O)N[C@H]1CCCC[C@@H]1C(N)=O)NC(=O)[C@H]1CCCC[C@@H]1NC(=O)[C@H]1CCCC[C@@H]1NC(=O)C[C@H](CCCCN)NC(=O)[C@H]1CCCC[C@@H]1N [H14 KT] | – | – | 242
339 | 149 | 125 | CSCC[C@@H](CC(=O)N[C@H]1CCCC[C@@H]1C(=O)N[C@H]1CCCC[C@@H]1C(=O)N[C@@H](CCCCN)CC(=O)N[C@H]1CCCC[C@@H]1C(N)=O)NC(=O)[C@H]1CCCC[C@@H]1N [H14 MK] | 133 | – | 33
– | 421 | 116 | N=C(N)NCCC[C@@H](CC(=O)N[C@H]1CCCC[C@@H]1C(=O)N[C@H]1CCCC[C@@H]1C(=O)N[C@@H](CCC(N)=O)CC(=O)N[C@H]1CCCC[C@@H]1C(N)=O)NC(=O)[C@H]1CCCC[C@@H]1N [H14 RQ] | – | – | 326
– | 177 | – | NC(=O)[C@H]1CCCC[C@@H]1NC(=O)C[C@H](CC(=O)O)NC(=O)[C@H]1CCCC[C@@H]1NC(=O)[C@H]1CCCC[C@@H]1NC(=O)C[C@H](Cc1ccc(O)cc1)NC(=O)[C@H]1CCCC[C@@H]1N [H14 YD] | 119 | – | –
